The values that follow come from PMC11609934, “Exploration and characterization of the antimalarial activity of cyclopropyl carboxamides that target the mitochondrial protein, cytochrome b” (European Journal of Medicinal Chemistry, 2024).

Read-outs that look alike come from different tables or passages of the source. Bounds are passed on as bounds.

Assay [1] concerns ring-stage P. falciparum parasites. Briefly: Asexual stage of arrest assay. Format: cell-based, Plasmodium falciparum. The following applies: 10 times EC50, sampled every 12 h for 48 h. On the procedure: Characterization of asexual stage phenotype and rate of asexual kill is important in determining the downstream application and TCP of an antimalarial series. […] Parasites were sampled every 12 h for 48 h, to prepare Giemsa-stained blood smears for analysis by microscopy. Parasitemia of each sample was measured by flow cytometry using SYBR-Green DNA staining.
Asexual Stage of Arrest Assay. This assay was conducted as previously described.

For assay [2], the system named is Dd2-B2. Description: 72 h SYBR Green I / MitoTracker flow cytometry assay, Dd2-B2. Format: cell-based. The note with it: Plasmodium falciparum, DD2, 72 h. As to the method:
MIR assay.Plasmodium falciparum asexual blood stage (ABS) parasites were cultured at 3 % hematocrit in human O^+ RBCs in RPMI-1640 media, supplemented with 25 mM HEPES, 50 mg/L hypoxanthine, 2 mM L-glutamine, 0.21 % sodium bicarbonate, 0.5 % (wt/vol) AlbuMAXII (Invitrogen) and 10 μg/mL gentamycin, in modular incubator chambers (Billups- Rothenberg) at 5 % O2, 5 % CO2 and 90 % N2 at 37 °C. Dd2 parasites were obtained from T. Wellems (NIAID, NIH). Dd2-B2 is a genetically homogenous line that was cloned from Dd2 by limiting dilution in the Fidock lab. Dd2-Polδ is a line edited in the Fidock Lab to have a hypermutable polymerase. […] Parasite survival was assessed by flow cytometry on an iQue flow cytometer (Sartorius) using SYBR Green and MitoTracker Deep Red FM (Life Technologies) as nuclear stain and vital dyes respectively.
Background: Flow cytometry measures light scatter and fluorescence of single cells or particles in a stream.

Assay [3] concerns male gamete. Briefly: Dual gamete formation assay, male gametes. Format: cell-based. The note with it: Plasmodium falciparum; NF54 parasites in a DGFA, 4 replicates. As to the method: (§1) To determine whether the cyclopropyl carboxamide class has transmission blocking potential we profiled selected analogs in a dual gamete formation assay. In this assay, stage V gametocytes are treated with compound, and gametogenesis is induced by the addition of xanthurenic acid. Male gamete viability is determined by an imaging algorithm measuring motile flagellation, while female viability is measured using an antibody to the female-specific Pfs25 surface marker. […] Collectively, the activity observed against male gametes is consistent with activity observed with other cyt b inhibitors.
(§2) Dual Gamete Formation Assay. Compounds were evaluated as previously described as a platform run at both Imperial College London and the London School of Hygiene and Tropical Medicine. Briefly, mature stage V gametocytes were exposed to compounds for 48 h at 37 °C in 384 well plates in gametocyte culture medium (RPMI 1640 supplemented with 25 mM HEPES, 50 μg/mL hypoxanthine, 4.8 g/L NaHCO3, 2 mM L-glutamine, 5 % pooled type AB serum, 0.5 % Albumax II (Gibco)) under a 1 % O2/3 % CO2/96 % N2 environment. Gametogenesis was then triggered by the addition of 10 μL ookinete medium (gametocyte culture medium supplemented with 100 μM xanthurenic acid and 0.27 μg/mL Cy3-labelled anti-Pfs25 antibody) to each well at room temperature. Plates were then cooled on a metal block at 4 °C for 4 min to ensure even cooling and then stabilized for a further 4 min at 28 °C. At 20 min post-induction, male gametogenesis was recorded in each well by automated brightfield microscopy using a × 4 objective lens and 1.5 × magnifier ( × 6 effective magnification). Afterward, plates were incubated in the dark at room temperature for 24 h and then female gametogenesis recorded in each well by automated fluorescence microscopy (anti-Pfs25-positive cells). […] All data was evaluated in comparison to the positive and negative controls to calculate percentage inhibition of male and female gametocytes, and dose response analysis and EC50 calculation performed using GraphPad Prism.

Assay [4] deals with W499-resistant populations. Description: microbe, parasite or virus in culture. The format is cell-based, Plasmodium falciparum. The note with it: for EC50: Plasmodium falciparum. The text has this: To confirm if W466 (1) and W499 (2) may have the same molecular target, W466 (1) and W499 (2) were each evaluated for cross resistance against their respective resistant populations from the pulsed forward genetic study (Fig. 2).

The subject of assay [5] is 3D7 P. falciparum strain. Briefly: Parasite reduction ratio (PRR) assay. The following applies: 10 times the EC50, up to 120 h. Format: cell-based, Plasmodium falciparum. On the procedure:
The parasite reduction ratio (PRR) assay is a benchmark assay used to determine the speed of kill of antimalarials at an early stage of development. […] After 28 days of incubation, parasite growth is measured using an LDH assay.
Parasite Reduction Ratio Assay. This is a platform assay conducted by TGC Lifesciences using a previously described protocol. […] Parasites were treated up to 120 h. Drug was renewed every 24 h over the entire treatment period (as directed). Samples of parasites were taken from the treated culture every 24 h (24, 48, 72, 96 and 120 h time points), drug was washed out and drug-free parasites were cultured in 96 well plates. To quantify number of viable parasites after treatment, serial dilutions were performed with the above-mentioned compounds after washing out the compound. Parasites were cultured in microtiter plates to allow all wells with viable parasites, to render detectable parasitaemia. After 22 days of culturing, cultured plates were checked for parasite growth. Final sampling was done after 28 days to confirm growth/no growth. The parasite levels were determined using a LDH assay as follows. A culture of parasitized red blood cells (RBC) of strain 3D7 with 0.25 % parasitaemia and 2 % haematocrit in RPMI-1640, 0.5 % albumax and 150 μM hypoxanthine is exposed to 3-fold serial dilutions of the compound. […]

The test system of assay [6] is female gamete. Description: Dual gamete formation assay, female gametes. The format is cell-based. The note with it: Plasmodium falciparum; NF54 parasites in a DGFA, 4 replicates. As to the method:
as §1, §2

Assay [7] relates to Pf Dd2 parental line. Briefly: Asexual stage assay, Dd2 parental line (SYBR green by FACS, 72 h). The format is cell-based. The note with it: Plasmodium falciparum, DD2, 72 h, read-out: Pf Dd2 EC50 (SD), 72 h, SYBR green by FACS, 3 experiments. On the procedure: Cyt b Resistant and ScDHODH Asexual Stage Assays. These assays were conducted as previously described. Briefly, asexual parasite strains indicated in Table 12 were incubated with compound in a dose response format for 72 h. Parasitemia was determined using SYBR-green fluorescence measured by flow cytometry (Thermo Fisher Attune). EC50 values were determined as described for the LDH assay.

One may read the IC50 as the concentration needed to halve the response being measured. A word on the IC90: it is the concentration needed for an effect of 90%. By EC50 is commonly meant the concentration at which the effect is half-maximal. Take `O=C(NC1CC1)c1ccc(CN(Cc2ccc(Cl)cc2Cl)C2CC2)cc1` [W499 (2)]: the “asexual stage of arrest” value in assay [1] is listed as “parasite arrest at the start of the trophozoite stage”. Further, the IC50 in assay [2] (read-out: IC50 Dd2-B2) worked out at 112 nM. Also, the IC90 in assay [2] (read-out: IC90 Dd2-B2) is 224 nM. Also, the EC50 in assay [3] is 760 nM; in assay [4] (read-out: W499-resistant population #2 EC50), 206 nM; in assay [4] (read-out: W499-resistant population #3 EC50), 177 nM; in assay [6], greater than 25000 nM. The “fold shift in EC50 against W499-resistant populations compared to wildtype 3D7” value in assay [4] is 1.6–1.9 fold. The “rate of kill in PRR assay” value in assay [5] is “moderate to slow rate of kill”.
For the compound `CCCN(Cc1ccc(C(=O)NC2CC2)cc1)Cc1ccc(C(F)(F)F)cc1` [WJM280 (108), N-Cyclopropyl-4-((propyl(4-(trifluoromethyl)benzyl)amino)methyl)benzamide], the EC50 in assay [7] turned out to be 10 nM.
